Where two headings read alike, the source gives them in different places.
Columns and labels:
[1] = target: T1, BC2L-C-Nt (N-terminal lectin domain of BC2L-C) (Burkholderia cenocepacia, UniProt B4EH86); details: cited from earlier work
BC2L-C-Nt = assay: STD-NMR competition experiment with α-methyl fucoside; assay type: binding, Burkholderia cenocepacia; details: 1 mol equiv α-methyl fucoside; for 4 aromatic protons only
Method: A great deal of additional information can be gained from STD competition assays, where a known binder is added to a protein–ligand mixture with the aim of displacing the ligand under study and confirm that they are both competing for the same binding site. […] The same competition experiment was performed for 4 in the presence of α-methyl fucoside. The reduction in STD intensity after the addition of the monosaccharide can be evaluated only for the aromatic protons, since the signals of galactose and methyl fucoside overlap in the region 3.8–3.6 ppm, and can be estimated around 60% (Table S2).
NMR experiments were performed on 400 MHz Bruker Avance III and 600 MHz Bruker Avance spectrometers at 298 K in deuterated or aqueous phosphate buffer at pH 7.4. When required, water suppression was achieved by excitation sculpting sequence from standard Bruker library. STD NMR experiments were performed using WATERGATE 3-9-19 pulse sequence for water suppression. […] Intensities of all STD effects (absolute STD) were calculated by division through integrals over the respective signals in STD reference spectra. The different signal intensities of the individual protons are best analyzed from the integral values in the reference and STD spectra, respectively. […]

[2] = target: T1, BC2L-C-Nt (N-terminal lectin domain of BC2L-C); assay: biochemical; assay type: binding

T1 sequence (B4EH86 1-132 limits assumed): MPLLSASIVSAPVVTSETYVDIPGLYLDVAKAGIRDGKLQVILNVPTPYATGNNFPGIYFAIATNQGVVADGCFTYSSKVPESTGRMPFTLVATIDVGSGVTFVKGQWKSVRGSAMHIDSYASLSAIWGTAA

C[C@@H]1O[C@H](C#Cc2ccc(C(C)(C)CN)cc2)[C@@H](O)[C@H](O)[C@@H]1O [compound 1]
Kd [1]: 290 µM

NCc1cccc(-c2ccc(C(=O)NC3OC(CO)C(O)C(O)C3O)o2)c1 (centres unmarked) [compound 4]
decrease of STD signal of the ligand after addition of α-methyl fucoside (BC2L-C-Nt): around 60% | factor by which activity is lower than that of 3 [2]: 2.5 | Kd ([2]; KD): 390 µM

C[C@@H]1O[C@H](NC(=O)c2ccc(-c3cccc(CN)c3)o2)[C@@H](O)[C@H](O)[C@@H]1O [compound 3]
decrease of STD signal of the ligand after addition of α-methyl fucoside (BC2L-C-Nt): 20–26% | times less potent than the H-type 1 tetrasaccharide [2]: 3

CC(=O)N[C@H]1[C@H](O[C@H]2[C@@H](O)[C@@H](CO)OC(O)[C@@H]2O)O[C@H](CO)[C@@H](O)[C@@H]1O[C@@H]1O[C@H](CO)[C@H](O)[C@H](O)[C@H]1O[C@@H]1O[C@@H](C)[C@@H](O)[C@@H](O)[C@@H]1O (some centres unmarked) [H-type 1 tetrasaccharide, Fucα1-2Galβ1-3GlcNAcβ1-3Gal, reference compound]
n (stoichiometry) [2]: 0.81 | Kd ([2]; pH 7, read-out: KD): 56 ± 4.5 µM

— article PMC9919437 (Molecules, 2023)
